Where two headings read alike, the source gives them in different places.
Key:
[1] = type: in vivo; settings: mouse
Description: The ^99m Tc-PETS solution as obtained in Example 1 was injected into mice through the tail vein in an amount of 0.1 ml/animal. The mice were sacrificed at pre-determined times after the injection. The radioactivities and weights of various organs and blood taken from the sacrificed mice were measured, and the remaining percentages per gram of each organ were determined. The results are shown in Table 1 wherein the relative ratio of each organ to blood was also shown therein.

[2] = 7 minutes from the administration

Substance: Tc-99m-labeled pentane-2,4-dione-bis(N-methylthiosemicarbazone) complex compound [^99m Tc-PETS]
- octanol/buffer distribution ratio (n-octanol / 0.06 M phosphate buffer, pH 7.0, 37° C., 15 min): 191.3
- lipophilic property compared with ^99m Tc-KTS (octanol/buffer, pH 7): much higher than that of ^99m Tc-KTS
- distribution ratio brain/blood [1, 2]: 1.67 ratio (unitless)
- distribution ratio heart/blood [1, 2]: 2.16 ratio (unitless)
- distribution ratio pancreas/blood [1, 2]: 2.66 ratio (unitless)
- distribution to brain, heart and pancreas after administration ([1]; i.v. tail vein): rapidly distributed to brain, heart and pancreas
- Body distribution, Blood ([1]; i.v. tail vein, 0.5 min): 4.31 %/g organ
- Body distribution, Brain ([1]; i.v. tail vein, 0.5 min): 4.68 %/g organ
- Body distribution, Heart ([1]; i.v. tail vein, 0.5 min): 15.60 %/g organ
- Body distribution, Intestine ([1]; i.v. tail vein, 0.5 min): 2.60 %/g organ
- Body distribution, Kidney ([1]; i.v. tail vein, 0.5 min): 15.30 %/g organ
- Body distribution, Liver ([1]; i.v. tail vein, 0.5 min): 4.83 %/g organ
- Body distribution, Lung ([1]; i.v. tail vein, 0.5 min): 11.80 %/g organ
- Body distribution, Pancreas ([1]; i.v. tail vein, 0.5 min): 7.11 %/g organ
- Body distribution, Spleen ([1]; i.v. tail vein, 0.5 min): 2.20 %/g organ
- Body distribution, Stomach ([1]; i.v. tail vein, 0.5 min): 1.95 %/g organ
- Brain/blood ratio ([1]; i.v. tail vein, 0.5 min): 1.09
- Pancreas/blood ratio ([1]; i.v. tail vein, 0.5 min): 1.60
- heart/blood ratio ([1]; i.v. tail vein, 0.5 min): 3.52
- Body distribution, Blood ([1]; i.v. tail vein, 2 min): 3.21 %/g organ
- Body distribution, Brain ([1]; i.v. tail vein, 2 min): 4.16 %/g organ
- Body distribution, Heart ([1]; i.v. tail vein, 2 min): 6.31 %/g organ
- Body distribution, Intestine ([1]; i.v. tail vein, 2 min): 3.17 %/g organ
- Body distribution, Kidney ([1]; i.v. tail vein, 2 min): 10.90 %/g organ
- Body distribution, Liver ([1]; i.v. tail vein, 2 min): 11.70 %/g organ
- Body distribution, Lung ([1]; i.v. tail vein, 2 min): 8.18 %/g organ
- Body distribution, Pancreas ([1]; i.v. tail vein, 2 min): 7.32 %/g organ
- Body distribution, Spleen ([1]; i.v. tail vein, 2 min): 3.24 %/g organ
- Body distribution, Stomach ([1]; i.v. tail vein, 2 min): 2.66 %/g organ
- Brain/blood ratio ([1]; i.v. tail vein, 2 min): 1.30
- Pancreas/blood ratio ([1]; i.v. tail vein, 2 min): 2.29
- heart/blood ratio ([1]; i.v. tail vein, 2 min): 2.17
- Body distribution, Blood ([1]; i.v. tail vein, 5 min): 2.34 %/g organ
- Body distribution, Brain ([1]; i.v. tail vein, 5 min): 2.93 %/g organ
- Body distribution, Heart ([1]; i.v. tail vein, 5 min): 4.08 %/g organ
- Body distribution, Intestine ([1]; i.v. tail vein, 5 min): 3.65 %/g organ
- Body distribution, Kidney ([1]; i.v. tail vein, 5 min): 6.20 %/g organ
- Body distribution, Liver ([1]; i.v. tail vein, 5 min): 20.10 %/g organ
- Body distribution, Lung ([1]; i.v. tail vein, 5 min): 3.95 %/g organ
- Body distribution, Pancreas ([1]; i.v. tail vein, 5 min): 4.30 %/g organ
- Body distribution, Spleen ([1]; i.v. tail vein, 5 min): 3.72 %/g organ
- Body distribution, Stomach ([1]; i.v. tail vein, 5 min): 1.97 %/g organ
- Brain/blood ratio ([1]; i.v. tail vein, 5 min): 1.37
- Pancreas/blood ratio ([1]; i.v. tail vein, 5 min): 1.86
- heart/blood ratio ([1]; i.v. tail vein, 5 min): 1.88
- Body distribution, Blood ([1]; i.v. tail vein, 7 min): 1.21 %/g organ
- Body distribution, Brain ([1]; i.v. tail vein, 7 min): 1.85 %/g organ
- Body distribution, Heart ([1]; i.v. tail vein, 7 min): 2.41 %/g organ
- Body distribution, Intestine ([1]; i.v. tail vein, 7 min): 2.96 %/g organ
- Body distribution, Kidney ([1]; i.v. tail vein, 7 min): 5.03 %/g organ
- Body distribution, Liver ([1]; i.v. tail vein, 7 min): 19.10 %/g organ
- Body distribution, Lung ([1]; i.v. tail vein, 7 min): 2.87 %/g organ
- Body distribution, Pancreas ([1]; i.v. tail vein, 7 min): 3.18 %/g organ
- Body distribution, Spleen ([1]; i.v. tail vein, 7 min): 3.06 %/g organ
- Body distribution, Stomach ([1]; i.v. tail vein, 7 min): 1.63 %/g organ
- Brain/blood ratio ([1]; i.v. tail vein, 7 min): 1.67
- Pancreas/blood ratio ([1]; i.v. tail vein, 7 min): 2.66
- heart/blood ratio ([1]; i.v. tail vein, 7 min): 2.16
- Body distribution, Blood ([1]; i.v. tail vein, 15 min): 1.46 %/g organ
- Body distribution, Brain ([1]; i.v. tail vein, 15 min): 0.97 %/g organ
- Body distribution, Heart ([1]; i.v. tail vein, 15 min): 1.76 %/g organ
- Body distribution, Intestine ([1]; i.v. tail vein, 15 min): 4.63 %/g organ
- Body distribution, Kidney ([1]; i.v. tail vein, 15 min): 4.40 %/g organ
- Body distribution, Liver ([1]; i.v. tail vein, 15 min): 21.90 %/g organ
- Body distribution, Lung ([1]; i.v. tail vein, 15 min): 2.56 %/g organ
- Body distribution, Pancreas ([1]; i.v. tail vein, 15 min): 2.19 %/g organ
- Body distribution, Spleen ([1]; i.v. tail vein, 15 min): 1.98 %/g organ
- Body distribution, Stomach ([1]; i.v. tail vein, 15 min): 1.50 %/g organ
- Brain/blood ratio ([1]; i.v. tail vein, 15 min): 0.68
- Pancreas/blood ratio ([1]; i.v. tail vein, 15 min): 1.52
- heart/blood ratio ([1]; i.v. tail vein, 15 min): 1.21
- Body distribution, Blood ([1]; i.v. tail vein, 30 min): 3.27 %/g organ
- Body distribution, Brain ([1]; i.v. tail vein, 30 min): 0.63 %/g organ
- Body distribution, Heart ([1]; i.v. tail vein, 30 min): 2.01 %/g organ
- Body distribution, Intestine ([1]; i.v. tail vein, 30 min): 7.68 %/g organ
- Body distribution, Kidney ([1]; i.v. tail vein, 30 min): 5.06 %/g organ
- Body distribution, Liver ([1]; i.v. tail vein, 30 min): 31.70 %/g organ
- Body distribution, Lung ([1]; i.v. tail vein, 30 min): 3.20 %/g organ
- Body distribution, Pancreas ([1]; i.v. tail vein, 30 min): 2.05 %/g organ
- Body distribution, Spleen ([1]; i.v. tail vein, 30 min): 2.85 %/g organ
- Body distribution, Stomach ([1]; i.v. tail vein, 30 min): 2.31 %/g organ
- Brain/blood ratio ([1]; i.v. tail vein, 30 min): 0.19
- Pancreas/blood ratio ([1]; i.v. tail vein, 30 min): 0.69
- heart/blood ratio ([1]; i.v. tail vein, 30 min): 0.62

Source: patent US4915931A, “Tc-99m mononuclide complex compound” (Nihon Medi-Physics Co., Ltd., priority 1988, dated 1990)
